The test system of one series is Kv1.5. To be noted: in Figure 2, no reference given, cited from earlier work.
In the next series the target is hKv1.5 potassium channel (Homo sapiens, UniProt P22460). The experiment in a line: Whole-cell patch clamp assay on HEK 293 cells stably expressing hKv1.5. To be noted: hKv1.5 IC50, whole-cell patch clamp, HEK 293 cells expressing hKv1.5, 25 °C, mean ± SD.
Series [1] has as its system SD rats. The format is in vivo, rat.
Series [2] has as its system SD rats. The series is described as follows: CaCl2-ACh induced AF model. The format is in vivo, rat.
Series [3] can be described thus: Single-dose pharmacokinetics study. The format is in vivo. To be noted: beagle dogs, mean ± SD, n = 6.
The next series has as its system guinea pigs. The series is described as follows: Preliminary safety evaluation by 12-lead electrocardiogram. Format: in vivo.
Where [4] appears, read: both sexes, beagle, dog, plasma, iv, 1 mg/kg, i.v. 1.00 mg/kg.
Setting [5] is: cumulative i.v. 3 × 10^−7 to 3 × 10^−5 mol/kg.

Structures are written as SMILES. Where a name gives a salt, the structure may show the parent alone. Read-outs that look alike come from different tables or passages of the source.

Sequence of hKv1.5 potassium channel (P22460 whole entry): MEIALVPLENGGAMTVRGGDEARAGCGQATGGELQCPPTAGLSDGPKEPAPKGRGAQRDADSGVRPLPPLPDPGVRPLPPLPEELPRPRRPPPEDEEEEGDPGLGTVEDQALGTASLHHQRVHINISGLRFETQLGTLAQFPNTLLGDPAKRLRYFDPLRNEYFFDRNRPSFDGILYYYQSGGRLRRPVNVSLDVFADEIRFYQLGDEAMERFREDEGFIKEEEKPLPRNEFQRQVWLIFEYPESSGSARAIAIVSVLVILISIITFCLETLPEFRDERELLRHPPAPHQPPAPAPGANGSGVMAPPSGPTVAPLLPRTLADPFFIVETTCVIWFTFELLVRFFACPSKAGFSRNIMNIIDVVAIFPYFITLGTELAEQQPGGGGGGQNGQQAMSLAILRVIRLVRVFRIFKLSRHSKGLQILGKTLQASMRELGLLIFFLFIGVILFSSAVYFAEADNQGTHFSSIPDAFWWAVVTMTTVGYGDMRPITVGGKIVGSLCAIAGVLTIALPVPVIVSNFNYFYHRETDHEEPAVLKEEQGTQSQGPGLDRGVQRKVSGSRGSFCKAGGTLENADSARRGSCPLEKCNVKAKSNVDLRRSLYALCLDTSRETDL

Consider `COc1ccc(CC(=O)NCc2ccccc2-c2ccccc2C(=O)NCCc2cccnc2)cc1` [AVE-0118], for which, in the series on Kv1.5 (known Kv1.5 inhibitors), the concentration for half-maximal inhibition (IC50) was 1.1 µM.

Compound `COc1ccc(NC(=O)C2CCN(Cc3ccccc3)CC2)cc1` [DDO-02001, 1-benzyl-N-(4-methoxyphenyl) piperidine-4-carboxamide] showed an IC50 against hKv1.5 potassium channel of 17.7 µM.

On to `COc1ccc(NC(=O)C2CCN(Cc3nc4ccccc4o3)CC2)cc1` [DDO-02002, 1-(benzo[d]oxazol-2-ylmethyl)-N-(4-methoxyphenyl) piperidine-4-carboxamide], for which the melting point is 190 to 194 °C. Further, the IC50 against hKv1.5 potassium channel came out at 8.96 ± 1.15 µM.

Compound `Cl.Cl.c1ccc(CNC2CCN(Cc3nc4ccccc4o3)CC2)cc1` [DDO-02004, 1-(benzo[d]oxazol-2-ylmethyl)-N-benzylpiperidin-4-amine dihydrochloride] came in with a melting point greater than 250 °C. On hKv1.5 potassium channel, the IC50 was determined as 0.95 ± 0.13 µM.

Consider `COc1ccc(CNC2CCN(Cc3nc4ccccc4o3)CC2)cc1.Cl.Cl` [DDO-02005, 1-(benzo[d]oxazol-2-ylmethyl)-N-(4-methoxybenzyl)piperidin-4-amine dihydrochloride], for which the “increase of aconitine required to cause arrhythmia versus model group” value (shortened to “increase of aconitine required”) in the series with SD rats [1] (0.1 mg/kg i.v.) came to 2%. For the same compound, the “increase of aconitine required” value in the series with SD rats [1] (1 mg/kg i.v.) is 53%. The “increase of aconitine required” value with SD rats [1] (3 mg/kg i.v.) is given as 56%. In addition, the “increase of aconitine required” value in the series with SD rats [1] (9 mg/kg i.v.) is on record as 60%. In the series on SD rats [2] (AF rats, 2.5 mg/kg i.p.), the “atrial ERP (AERP)” value was “increased to normal level” and the “ventricle ERP (VERP)” value is given as “increased to normal level”. For the same compound, in the series on SD rats [2] (rats, 0.625, 1.25, 2.5 mg/kg i.p., Day 4 to Day 7), the “duration of AF” value is reported as “shortened significantly”. In addition, in the series on SD rats [2] (rats, dronedarone 1.25 mg/kg i.p. as positive control), the “AF therapeutic effect compared with dronedarone” value was “better than that of dronedarone”. For the same compound, in series [3] (i.v. 1.00 mg/kg, 1 mg/kg), the CL amounted to 97.2 ± 24 mL/min/kg. This compound also showed a CL in series [3] (p.o. 1.25 mg/kg) of 608.5 ± 42.3 mL/min/kg. In series [3] (p.o. 1.25 mg/kg, 1.25 mg/kg), this compound gave a Cmax of 1.27 ± 0.40 ng/mL and a t1/2 of 6.25 ± 2.40 h. Further, in series [3] (setting [4]), the clearance is 97.2 mL/min/kg and the half-life is 3.23 ± 1.07 h. The peak concentration (Cmax) in series [3] (both sexes, beagle, dog, plasma, iv, 1 mg/kg, i.v. 1.00 mg/kg, read-out: Cmax) worked out at 90.2 ± 28.8 ng/mL. This compound gave a half-life in series [3] (both sexes, beagle, dog, plasma, po, 1.25 mg/kg, p.o. 1.25 mg/kg) of 6.25 h. The Cmax in series [3] (both sexes, beagle, dog, plasma, po, 1.25 mg/kg, p.o. 1.25 mg/kg, read-out: Cmax) came out at 1.27 ng/mL. Further, the AUC(0-t) in series [3] (both sexes, dog, plasma, iv, i.v. 1.00 mg/kg) was found to be 178 ± 39.3 ng·h/mL. This compound also registered an AUC(0-t) in series [3] (both sexes, dog, plasma, po, p.o. 1.25 mg/kg) of 4.41 ± 0.69 ng·h/mL. Further, the “overall preliminary safety compared with Azimilide” value in the series on guinea pigs (12-lead electrocardiogram) is “safer than Azimilide”. Moreover, in the series with guinea pigs (setting [5]), the “effect on QT dispersion (QTd), compared with Azimilide” value is given as “less effect”; the “effect on QTcd, compared with Azimilide” value is on record as “less effect”; the “heart rate of guinea pigs” value is listed as “slowed down obviously”; the “heart rate, compared with Azimilide” value is given as “no statistically significant differences”. In addition, in the series with guinea pigs (setting [5]), the “prolonging QT interval, compared with Azimilide” value is reported as “no statistically significant differences” and the “prolonging QTc interval, compared with Azimilide” value is on record as “no statistically significant differences”. On hKv1.5 potassium channel, this compound came in with an IC50 of 0.72 ± 0.08 µM.

As for `Fc1ccc(CNC2CCN(Cc3nc4ccccc4o3)CC2)cc1` [DDO-02006, 1-(benzo[d]oxazol-2-ylmethyl)-N-(4-fluorobenzyl) piperidin-4-amine dihydrochloride], the half-maximal inhibitory concentration (IC50) against hKv1.5 potassium channel was determined as 3.24 ± 0.29 µM.

On hKv1.5 potassium channel, `COc1ccccc1CNC1CCN(Cc2nc3ccccc3o2)CC1` [DDO-02007, 1-(benzo[d]oxazol-2-ylmethyl)-N-(2-methoxybenzyl)piperidin-4-amine dihydrochloride] yielded an IC50 greater than 20 µM.

In turn, `Cc1ccc(CNC2CCN(Cc3nc4ccccc4o3)CC2)cc1` [DDO-02008, 1-(benzo[d]oxazol-2-ylmethyl)-N-(4-methylbenzyl)piperidin-4-amine dihydrochloride] showed an IC50 on hKv1.5 potassium channel greater than 20 µM.

The compound `c1ccc(CCNC2CCN(Cc3nc4ccccc4o3)CC2)cc1` [DDO-02009, 1-(benzo[d]oxazol-2-ylmethyl)-N-phenethylpiperidin-4-amine hydrochloride] registered an IC50 at hKv1.5 potassium channel greater than 20 µM.

For the compound `CS(=O)(=O)Nc1cccc([C@H](c2ccc(F)cc2)C(c2cccnc2)c2cccnc2)n1` [MK-0448], the IC50 with Kv1.5 (known Kv1.5 inhibitor) was 0.0108 µM.

Take `Cc1ccc(S(=O)(=O)Nc2ccccc2C(=O)N(Cc2ccccc2)Cc2cccnc2)cc1` [S-0100176]: in the series on Kv1.5 (known Kv1.5 inhibitors), the IC50 is 0.7 µM.

For the compound `COc1ccc(CCO[C@@H]2CCCC[C@H]2N2CC[C@@H](O)C2)cc1OC` [Vernakalant hydrochloride], in the series with Kv1.5 (known Kv1.5 inhibitors), the IC50 is 13 µM.
